Source: patent US20070249555A1, “Use of Atp Analogues for Treatment of Cardiovascular Diseases” (INSTITUT NATIONAL DE LA SANTE ET DE LA RECHERCHE MEDICALE …, priority 2004, published 2007)

Tests used:
human P2Y12 receptor = human P2Y12 receptor (Homo sapiens, UniProt Q9H244); test: forskolin-induced cAMP formation in hP2Y12-CHO-K1 cells; assay type: cell-based
Description: FIG. 2C: Effect ADP (▴), AR-C69931MX (●) and ADP in presence of AR-C69931MX (100 nM) (▪) on forskolin (FSK: 3 μM)-induced cAMP formation in hP2Y12-CHO-K1 cells. The cells were incubated with various concentrations of these agents for 12 min. Data are expressed in % of the value with forskolin alone and presented as mean ±S.E.M. of 3 (ADP) or 2 (AR-C69931MX) independent experiments, each performed in triplicates.
The cyclic AMP assays was performed on CHO-K1 cell lines expressing recombinant P2Y receptors as follows.
The plasmid of human P2Y12 receptor (hP2Y12-pEFIN5) was obtained from Euroscreen (Gosselies, Belgium) and was stably transfected into CHO-K1 cells by using the FuGENETM6 transfection reagent (Roche Applied Science, Mannheim, Germany). Transfected cells were selected using G418 (400 μg/ml). The hP2Y13-CHO-K1 and HP2Y12-CHO-K1 cells were grown in Ham'S F12 cell culture medium (Invitrogen-France) supplemented with fetal bovine serum (10%, v/v), penicillin (100 units/ml), streptomycin (100 μg/ml) and G418 (400 μg/ml).
The stably transfected CHO-K1 cells (200,000 cells/dish) were seeded on 35-mm diameter cell culture dishes in complete medium one day before the experiment. […] Cyclic AMP was quantified by 125l radioimmunoassay, as described in Communi et al., J Biol Chem, 2001, 276: 41479-85.

[1] = tested on: liver of P2Y1-/- C57BL/6J mice; test: in situ TG-HDL2 endocytosis by perfused liver of P2Y1-/- mouse; assay type: in vivo; settings: liver perfused in situ 10 min at 37° C., AR-C69931MX 10 μM
Description: FIG. 4C: The liver from P2Y1^−/−C57BL/6J male mice (25 weeks old) was perfused in situ for 10 minutes at 37° C. in HBSS medium with 75 μg/ml of ^125I-TG-HDL2 in the presence of PBS (a) or AR-C69931MX 10 μM (b). ^125I radioactivity associated with the livers was determined (n>3); (*) (p<0.05) (unpaired t-test).
The perfused mouse liver experiments were carried out on C57BL/6J male mice, 8 weeks old, (Charles River Cie) or P2Y1^−/− mouse, 25 weeks old. Mouse were anesthetized by intraperitoneal injections of 200 μl ketamine hydrochloride (Merial)-xylazine hydrochloride 2% (Bayer)-PBS (1:1:3 v/v). […] The livers were perfused in situ for 10 minutes at 37° C. in HBSS medium containing 75 μg/ml of ^125I-TG-HDL2 (5000 cpm/ng of proteins) or ^3H-cholesteryl-ether-TG-HDL2 (15000 dpm/mg of cholesteryl ester), with PBS apolipoprotein A-1 (ApoA-1, 10 μg/ml) or AR-C69931MX (10 μM).
Livers were extensively washed at 4° C. in PBS and radioactivity associated per […] of liver was counted, (n=7 per group). Values represent means ±SEM, with p<0.05 (unpaired t-test).

plain CHO-K1 cells = test: forskolin-induced cAMP accumulation in plain CHO-K1 cells (control); assay type: cell-based; settings: untransfected control cells

human P2Y12 receptor, sequence (Q9H244 whole entry, the tested form may be a part): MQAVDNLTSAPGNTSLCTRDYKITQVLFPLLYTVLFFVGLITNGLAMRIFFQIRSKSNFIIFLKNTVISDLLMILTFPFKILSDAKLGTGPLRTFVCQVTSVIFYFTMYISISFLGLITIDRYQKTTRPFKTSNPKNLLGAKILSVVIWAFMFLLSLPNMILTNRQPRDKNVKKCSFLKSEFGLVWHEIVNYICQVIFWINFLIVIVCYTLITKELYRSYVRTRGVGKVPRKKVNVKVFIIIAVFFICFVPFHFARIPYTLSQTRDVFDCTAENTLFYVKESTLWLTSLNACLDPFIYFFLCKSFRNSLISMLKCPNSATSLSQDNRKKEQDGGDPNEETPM

effect per se on cAMP accumulation by forskolin (human P2Y12 receptor; forskolin 3 μM, 12 min): no effect
Structure (SMILES): CSCCNc1nc(SCCC(F)(F)F)nc2c1ncn2[C@@H]1O[C@H](COP(=O)(O)OP(=O)(O)C(Cl)(Cl)P(=O)(O)O)[C@@H](O)[C@H]1O [AR-C69931MX, N-[2-(methylthio)ethyl]-2-[(3,3,3-trifluoropropyl)thio]-5′-adenylic acid, monoanhydride with dichloromethylenebisphosphonic acid]
effect on ADP inhibition of cAMP accumulation (human P2Y12 receptor; AR-C69931MX 100 nM with ADP): shifted the ADP inhibition to higher concentrations
increase of TG-HDL2 internalization by the liver above the control [1]: 38%
effect on cAMP accumulation in plain CHO-K1 cells (plain CHO-K1 cells): no effect
